Legend:
[1] = target: T1, HA-ARID4B (Homo sapiens, UniProt Q4LE39); experiment: CETSA in HEK-293T cells expressing HA-ARID4B; assay type: cell-based; conditions: 10 μM, 2 h
T1 construct: transfected with vector, full-length ARID4B or ARID4B deletion mutants; expressed in transfected cells; host or cells: HEK-293T
T1 sequence (Q4LE39 1-1312): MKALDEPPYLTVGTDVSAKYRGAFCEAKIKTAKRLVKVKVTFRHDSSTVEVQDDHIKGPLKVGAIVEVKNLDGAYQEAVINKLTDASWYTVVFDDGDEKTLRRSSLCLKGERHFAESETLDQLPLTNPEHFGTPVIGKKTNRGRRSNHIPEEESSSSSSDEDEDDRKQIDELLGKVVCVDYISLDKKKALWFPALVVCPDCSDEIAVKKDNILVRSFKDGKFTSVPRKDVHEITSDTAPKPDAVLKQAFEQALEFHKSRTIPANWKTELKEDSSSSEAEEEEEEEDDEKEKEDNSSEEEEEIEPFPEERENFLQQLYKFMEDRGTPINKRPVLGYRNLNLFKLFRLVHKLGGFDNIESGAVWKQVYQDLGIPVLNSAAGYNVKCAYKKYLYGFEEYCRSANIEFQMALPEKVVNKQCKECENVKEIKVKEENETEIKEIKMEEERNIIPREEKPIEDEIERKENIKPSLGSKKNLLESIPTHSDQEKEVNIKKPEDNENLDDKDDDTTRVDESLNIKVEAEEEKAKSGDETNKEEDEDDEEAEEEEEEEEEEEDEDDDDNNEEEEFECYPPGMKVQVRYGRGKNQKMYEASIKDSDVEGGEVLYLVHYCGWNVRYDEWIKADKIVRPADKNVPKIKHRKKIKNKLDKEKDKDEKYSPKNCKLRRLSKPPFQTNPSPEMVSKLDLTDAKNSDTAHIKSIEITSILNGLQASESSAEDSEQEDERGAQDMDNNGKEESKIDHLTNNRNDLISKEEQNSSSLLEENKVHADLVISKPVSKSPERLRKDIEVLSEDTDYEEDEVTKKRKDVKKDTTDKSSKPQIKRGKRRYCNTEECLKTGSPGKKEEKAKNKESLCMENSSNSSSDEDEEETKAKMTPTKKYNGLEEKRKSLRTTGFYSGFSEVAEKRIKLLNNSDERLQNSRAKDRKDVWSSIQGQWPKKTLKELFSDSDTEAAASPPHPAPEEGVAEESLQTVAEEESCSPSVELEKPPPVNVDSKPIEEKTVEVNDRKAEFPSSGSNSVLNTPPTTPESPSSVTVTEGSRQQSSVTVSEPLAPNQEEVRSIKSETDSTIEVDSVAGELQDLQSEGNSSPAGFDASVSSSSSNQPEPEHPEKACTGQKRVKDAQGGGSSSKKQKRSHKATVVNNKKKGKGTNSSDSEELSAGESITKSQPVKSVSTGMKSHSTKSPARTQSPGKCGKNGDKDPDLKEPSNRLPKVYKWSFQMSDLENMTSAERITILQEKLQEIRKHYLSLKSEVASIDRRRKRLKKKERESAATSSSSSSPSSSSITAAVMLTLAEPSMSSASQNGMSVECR
Experimental: (B-C) show cells expressing HA-ARID4B (C) or HA-ARID4BIC (D) treated or not with ARD150 (10 μM) for 2 h were used for CESTA. […] (D-E) show cells expressing HA-ARID4B (D) or Flag-ARID4A (E) treated or not with RWR-18 (10 μM) for 2 h were used for CESTA. […] Data are means±SEM from three experiments. *P<0.05, **P<0.01, ns, not significant.
Using CETSA (cellular thermal shift assay) to examine whether ARD150 or RWR-18 binds to ARID4B, MCF7 cells treated or not with ARD150 or RWR-18 for 2 h were collected, followed by heating at 46, 49, 52, 55, and 58° C. to denature and precipitate ARID4B protein, cell lysis, removal of cell debris and aggregates by centrifugation, and finally detection of remaining thermostable ARID4B protein by western blot. The ARID4B aggregation temperatures without ARD150 were determined to be 49-52° C., but shifted to 52-55° C. after treatment with ARD150 and even more so with RWR-18 (FIG. 15A-D). To determine whether ARD150 and RWR-18 targets the chromodomain of ARID4B, CESTA was performed using chromodomain deletion mutant (ARID4BAC). HEK-293T cells expressing HA-ARID4B or HA-ARID4BAC were treated or not with ARD150 (10 μM) for 2 h and processed for CESTA.

[2] = target: T2, ARID4B chromodomain (Homo sapiens, UniProt Q4LE39); experiment: Isothermal titration calorimetry (ITC); assay type: binding
T2 sequence (Q4LE39 572-624 limits assumed): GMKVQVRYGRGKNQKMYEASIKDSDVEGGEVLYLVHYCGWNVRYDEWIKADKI
Text: It was then undertaken to identify compounds that inhibit ARID4B, focusing on the chromodomain therein. First, the structure of ARID4B was created using a homology model based on an optimized computational platform that combines the iterative threading assembly refinement (TASSER) and SWISSMODEL (FIG. 14A-B). Protein structure prioritization was based on protein-model accuracy, quantitatively measured C-score, TM-score and RMSD value. Next, in silico screening of 160,000 drug-like diverse small molecules from MOE's chemical repository combined with biophysical characterization including isothermal calorimetry (ITC, FIG. 16) and circular dichroism (data not shown) of identified compound ARD150 with recombinant ARID4B chromodomain informed chemical synthesis of diverse scaffolds.
Isothermal titration calorimetry (ITC) was used to confirm the binding of ARD150 and its derivative RWR18 (derived from ARD150 with slight structural modifications) to ARID4B chromodomain and to determine the Kd, reaction stoichiometry (n), enthalpy (ΔH) and entropy (ΔS). […] This highlights to power of rational design to tune the target engagement and affinity of ligands.

[3] = test system: MCF7; experiment: MTT proliferation assay, MCF7; assay type: cell-based; conditions: Homo sapiens, MCF7, 336 h, 14 days
Experimental: (§1) To determine the EC50 of ARD150 and two of its derivatives in breast cancer, MCF7, ZR75-1 (wild-type ERα+), and MCF7 Y537S (constitutively activate ERα mutant) and their ARID4B KO counterparts were seeded in 24 well plate and treated with the various concentrations (0, 0.1, 1, 5, 10, 20, 40, 60, and 100 μM) of ARD150 and RWR-18 for 14 days. […] Knockout of ARID4B renders cells less sensitive to these compounds.

[4] = test system: T47D; experiment: MTT proliferation assay, T47D; assay type: cell-based; conditions: data not shown
[5] = test system: MCF7 Y537S; experiment: MTT proliferation assay, MCF7 Y537S; assay type: cell-based; conditions: data not shown
Experimental: as §1

[6] = test system: MCF10A; experiment: Proliferation assay, non-tumorigenic MCF10A; assay type: cell-based; conditions: MCF10A expresses lower ARID4B

SMILES	shift of aggregation temperatures of HA-ARID4B [1]	Kd [2] [µM]	EC50 [3] [µM]	EC50 for T47D [4]	EC50 for MCF7 Y537S [5]	effect on non-tumorigenic MCF10A [6]
O=C(COc1ccc(OCc2ccccc2)cc1)NCCCN1CCOCC1 [RWR-18]	resulted in a shift of aggregation temperatures	1	7.9	comparable to that of MCF7	comparable to that of MCF7	insensitive
COc1ccc(C(=O)NCCCN2CCOCC2)cc1OC [ARD150]	resulted in a shift of aggregation temperatures	3.5	13.8	comparable to that of MCF7	comparable to that of MCF7	insensitive

Reference: patent US20250099405A1, “COMPOSITIONS, METHODS, AND DEVELOPMENT OF ARID4B INHIBITORS” (University of Kentucky Research Foundation, priority 2022, published 2025)
